As a reminder, the MIC is the smallest concentration in the dilution series that meets the test's criterion for growth inhibition. A higher MIC goes with a less susceptible organism.

The nature of test [1]: Antibacterial activity against Salmonella enterica serovar blockley harboring G235A mutation in rlpD gene by agar dilution method. It counts as functional, Salmonella enterica subsp. enterica serovar Blockley.
Test [2] is described as follows: Antibacterial activity against Salmonella enterica subsp. enterica serovar Saintpaul harboring G235A mutation in rlpD gene by agar dilution method. It is filed as functional. (In general: In agar dilution the substance is mixed into plates at graded concentrations.)
The subject of test [3] is Salmonella typhimurium. In words: Antibacterial activity against Salmonella enterica serovar Typhimurium harboring G235A mutation in rlpD gene by agar dilution method. It is filed as functional, Salmonella enterica subsp. enterica serovar Typhimurium.
Test [4] in a line: Antibacterial activity against Salmonella enterica serovar montevideo harboring rlpD GC379T and rlpV G25A mutant gene by agar dilution method. It is filed as functional, Salmonella enterica subsp. enterica serovar Montevideo.
The nature of test [5]: Antibacterial activity against quinolone-susceptible Salmonella enterica serovar newport s2099 by agar dilution method. It counts as functional, Salmonella enterica subsp. enterica serovar Newport.
Test [6] is described as follows: Antibacterial activity against quinolone-resistant Salmonella enterica serovar stanley s2018 by agar dilution method. It is filed as functional, Salmonella enterica subsp. enterica serovar Stanley.
Test [7] can be described thus: Antibacterial activity against quinolone-susceptible Salmonella enterica serovar rissen s2021 by agar dilution method. It is filed as functional, Salmonella enterica subsp. enterica serovar Rissen.
Test [8] is described as follows: Antibacterial activity against quinolone-resistant Salmonella enterica serovar stanley s2085 by agar dilution method. It counts as functional, Salmonella enterica subsp. enterica serovar Stanley.
Test [9] can be described thus: Antibacterial activity against quinolone-resistant Salmonella enterica serovar stanley s2086 by agar dilution method. It is filed as functional, Salmonella enterica subsp. enterica serovar Stanley.
Test [10] can be described thus: Antibacterial activity against quinolone-susceptible Salmonella enterica serovar poona s2181 by agar dilution method. It counts as functional, Salmonella enterica subsp. enterica serovar Poona.
The subject of test [11] is Salmonella typhimurium. In words: Antibacterial activity against quinolone-susceptible Salmonella enterica serovar Typhimurium s2137 by agar dilution method. It is filed as functional, Salmonella enterica subsp. enterica serovar Typhimurium.
Test [12] can be described thus: Antibacterial activity against quinolone-susceptible Salmonella enterica serovar virchow s2195 by agar dilution method. It is filed as functional, Salmonella enterica subsp. enterica serovar Virchow.
Test [13] in a line: Antibacterial activity against quinolone-resistant Salmonella enterica serovar stanley s2236 by agar dilution method. It is filed as functional, Salmonella enterica subsp. enterica serovar Stanley.
The nature of test [14]: Antibacterial activity against quinolone-resistant Salmonella enterica serovar stanley s2265 by agar dilution method. It is filed as functional, Salmonella enterica subsp. enterica serovar Stanley.
Test [15] in a line: Antibacterial activity against quinolone-resistant Salmonella enterica serovar stanley s2280 by agar dilution method. It is filed as functional, Salmonella enterica subsp. enterica serovar Stanley.
Test [16] concerns Salmonella typhimurium. Kind of test: Antibacterial activity against quinolone-susceptible Salmonella enterica serovar Typhimurium s2389 by agar dilution method. It counts as functional, Salmonella enterica subsp. enterica serovar Typhimurium.
In test [17] the test system is Salmonella typhimurium. In words: Antibacterial activity against quinolone-susceptible Salmonella enterica serovar Typhimurium s2391 by agar dilution method. It is filed as functional, Salmonella enterica subsp. enterica serovar Typhimurium.
Test [18] can be described thus: Antibacterial activity against quinolone-susceptible Salmonella enterica serovar blockley s2439 by agar dilution method. It is filed as functional, Salmonella enterica subsp. enterica serovar Blockley.
Test [19] in a line: Antibacterial activity against quinolone-susceptible Salmonella enterica serovar bredeney s2477 by agar dilution method. It is filed as functional, Salmonella enterica subsp. enterica serovar Bredeney.
Test [20] can be described thus: Antibacterial activity against quinolone-susceptible Salmonella enterica serovar blockley s2608 by agar dilution method. It is filed as functional, Salmonella enterica subsp. enterica serovar Blockley.
Test [21] can be described thus: Antibacterial activity against quinolone-susceptible Salmonella enterica serovar emek s2635 by agar dilution method. It is filed as functional, Salmonella enterica subsp. enterica serovar Emek.
Test [22] can be described thus: Antibacterial activity against quinolone-susceptible Salmonella enterica serovar blockley s2768 by agar dilution method. It is filed as functional, Salmonella enterica subsp. enterica serovar Blockley.
Test [23] in a line: Antibacterial activity against quinolone-susceptible Salmonella enterica serovar saintpaul s2829 by agar dilution method. It counts as functional, Salmonella enterica subsp. enterica serovar Saintpaul.
The nature of test [24]: Antibacterial activity against quinolone-susceptible Salmonella enterica serovar stanley s2868 by agar dilution method. It is filed as functional, Salmonella enterica subsp. enterica serovar Stanley.
Test [25] in a line: Antibacterial activity against quinolone-susceptible Salmonella enterica serovar hvittingfoss s2948 by agar dilution method. It counts as functional, Salmonella enterica subsp. enterica serovar Hvittingfoss.
A short description of test [26]: Antibacterial activity against quinolone-susceptible Salmonella enterica serovar rissen s3141 by agar dilution method. It counts as functional, Salmonella enterica subsp. enterica serovar Rissen.
In test [27] the test system is Salmonella typhimurium. Kind of test: Antibacterial activity against quinolone-susceptible Salmonella enterica serovar Typhimurium s3082 by agar dilution method. It is filed as functional, Salmonella enterica subsp. enterica serovar Typhimurium.
In a further test the test system is Salmonella enteritidis. In words: Antibacterial activity against quinolone-susceptible Salmonella enterica serovar enteritidis s3139 by agar dilution method. It is filed as functional, Salmonella enterica subsp. enterica serovar Enteritidis.
Another test concerns Salmonella enterica. Kind of test: Antibacterial activity against quinolone-resistant Salmonella enterica. It counts as functional.

In brackets after ≈: the same amount, converted by molar mass.

In the case of `CC[C@H]1OC(=O)[C@H](C)[C@@H](O[C@H]2C[C@@](C)(OC)[C@@H](O)[C@H](C)O2)[C@H](C)[C@@H](O[C@@H]2O[C@H](C)C[C@H](N(C)C)[C@H]2O)[C@](C)(O)C[C@@H](C)C(=O)[C@H](C)[C@@H](O)[C@]1(C)O` [ERYTHROMYCIN], the minimum inhibitory concentration (MIC) in [1] was more than 128 µg/mL; in test [2], more than 128 µg/mL; in the test on Salmonella typhimurium [3], more than 64 µg/mL; in test [4] it was more than 64 µg/mL.

For the molecule `CC[C@H]1OC(=O)[C@H](C)C(=O)[C@H](C)[C@@H](O[C@@H]2O[C@H](C)C[C@H](N(C)C)[C@H]2O)[C@](C)(OC)C[C@@H](C)C(=O)[C@H](C)[C@H]2N(CCCCn3cnc(-c4cccnc4)c3)C(=O)O[C@]12C` [TELITHROMYCIN], the MIC is more than 128 µg/mL in test [1], more than 128 µg/mL in test [2], more than 128 µg/mL in the test on Salmonella typhimurium [3] and 4 µg/mL (≈ 4.93 µM) in test [4].

For `CC[C@H]1OC(=O)[C@H](C)[C@@H](O[C@H]2C[C@@](C)(OC)[C@@H](O)[C@H](C)O2)[C@H](C)[C@@H](O[C@@H]2O[C@H](C)C[C@H](N(C)C)[C@H]2O)[C@](C)(O)C[C@@H](C)CN(C)[C@H](C)[C@@H](O)[C@]1(C)O` [AZITHROMYCIN], the MIC was 32 µg/mL (≈ 42.7 µM) in test [5]; 64 µg/mL (≈ 85.4 µM) in [6]; more than 128 µg/mL in test [7]; 64 µg/mL (≈ 85.4 µM) in test [8]; 64 µg/mL (≈ 85.4 µM) in test [9]; 32 µg/mL (≈ 42.7 µM) in test [10]. Besides, the MIC was 128 µg/mL (≈ 171 µM) against Salmonella typhimurium [11]; more than 128 µg/mL in [12]; 32 µg/mL (≈ 42.7 µM) in test [13]; 128 µg/mL (≈ 171 µM) in test [14]; 64 µg/mL (≈ 85.4 µM) in test [15]; 128 µg/mL (≈ 171 µM) in the test on Salmonella typhimurium [16]. Moreover, the MIC against Salmonella typhimurium [17] is 128 µg/mL (≈ 171 µM); in [18], 64 µg/mL (≈ 85.4 µM); in [19], more than 128 µg/mL; in [20], 64 µg/mL (≈ 85.4 µM); in test [21], 64 µg/mL (≈ 85.4 µM); in test [22], 128 µg/mL (≈ 171 µM). The MIC stood at 64 µg/mL (≈ 85.4 µM) in test [23]; 128 µg/mL (≈ 171 µM) in test [24]; 128 µg/mL (≈ 171 µM) in test [25]; 64 µg/mL (≈ 85.4 µM) in [26]; 128 µg/mL (≈ 171 µM) with Salmonella typhimurium [27]; 128 µg/mL (≈ 171 µM) in the test with Salmonella enteritidis. Moreover, the MIC in [1] is 64 µg/mL (≈ 85.4 µM); in [2] it was 64 µg/mL (≈ 85.4 µM); in the test on Salmonella typhimurium [3], 128 µg/mL (≈ 171 µM); in [4], 4 µg/mL (≈ 5.34 µM); in the test on Salmonella enterica, not below 32 µg/mL.

`O=C(O)c1cn(C2CC2)c2cc(N3CCNCC3)c(F)cc2c1=O` [CIPROFLOXACIN]: the MIC is 0.25 µg/mL (≈ 0.754 µM) in test [1]; 0.03 µg/mL (≈ 0.0905 µM) in [2]; 0.06 µg/mL (≈ 0.181 µM) against Salmonella typhimurium [3]; 0.5 µg/mL (≈ 1.51 µM) in [4]; not below 0.125 µg/mL in the test with Salmonella enterica.

On to `CCn1cc(C(=O)O)c(=O)c2ccc(C)nc21` [NALIDIXIC ACID], for which the MIC in [1] was more than 512 µg/mL; in [2], 16 µg/mL (≈ 68.9 µM); in the test with Salmonella typhimurium [3], 16 µg/mL (≈ 68.9 µM); in [4] it was 16 µg/mL (≈ 68.9 µM); against Salmonella enterica it was not below 32 µg/mL.

For the origin of these results see ChEMBL document CHEMBL1275250, “In vitro activity of azithromycin against nontyphoidal Salmonella enterica” (2010).
